Blank lines part the entries; values can stand above or below the compound they belong to.
Columns and labels:
[1] = Skin permeability using the Example 1 formulations (Example 6)
Source text: Thus, adjustment of the drug concentration can be carried out in order to achieve a desired therapeutic effect.

[2] = Ketoprofen plasma levels achieved by on-knee patch delivery (Example 7); type: in vivo, human; conditions: N = 22; for concentration at 2 h / concentration at 4 h / concentration at 6 h / concentration at 8 h / concentration at 10 h / concentration at 12 h / concentration at 14 h / concentration at 16 h / concentration at 18 h / concentration at 20 h / concentration at 24 h / concentration at 28 h / concentration at 32 h / concentration at 36 h / concentration at 42 h / concentration at 48 h: human, plasma, topical, Mean Ketoprofen Plasma Concentration; for concentration at 2 h: applied 12 h
Procedure: In one study session, subjects received one patch above one knee and in the other study session subjects received two patches simultaneously, one above each knee. The patches were applied for 12 hours and venous blood samples were collected during both study session.

- Skin permeability compared with ketoprofen [1]: less skin permeable
Structure (SMILES): O=C(O)Cc1ccccc1Nc1c(Cl)cccc1Cl [diclofenac]

- Mean Ketoprofen Plasma Concentration produced by unit skin-drug contact area ([2]; Single Patch, time point 2 hrs): 0.078 ng/ml/cm^2
- Mean Ketoprofen Plasma Concentration produced by unit skin-drug contact area ([2]; Single Patch, time point 4 hrs): 0.366 ng/ml/cm^2
- Mean Ketoprofen Plasma Concentration produced by unit skin-drug contact area ([2]; Single Patch, time point 6 hrs): 0.562 ng/ml/cm^2
- Mean Ketoprofen Plasma Concentration produced by unit skin-drug contact area ([2]; Single Patch, time point 8 hrs): 0.675 ng/ml/cm^2
- Mean Ketoprofen Plasma Concentration produced by unit skin-drug contact area ([2]; Single Patch, time point 10 hrs): 0.770 ng/ml/cm^2
- Mean Ketoprofen Plasma Concentration produced by unit skin-drug contact area ([2]; Single Patch, time point 12 hrs): 0.703 ng/ml/cm^2
- Mean Ketoprofen Plasma Concentration produced by unit skin-drug contact area ([2]; Single Patch, time point 14 hrs): 0.464 ng/ml/cm^2
- Mean Ketoprofen Plasma Concentration produced by unit skin-drug contact area ([2]; Single Patch, time point 16 hrs): 0.282 ng/ml/cm^2
- Mean Ketoprofen Plasma Concentration produced by unit skin-drug contact area ([2]; Single Patch, time point 18 hrs): 0.213 ng/ml/cm^2
- Mean Ketoprofen Plasma Concentration produced by unit skin-drug contact area ([2]; Single Patch, time point 20 hrs): 0.160 ng/ml/cm^2
- Mean Ketoprofen Plasma Concentration produced by unit skin-drug contact area ([2]; Single Patch, time point 24 hrs): 0.095 ng/ml/cm^2
- Mean Ketoprofen Plasma Concentration produced by unit skin-drug contact area ([2]; Single Patch, time point 28 hrs): 0.058 ng/ml/cm^2
- Mean Ketoprofen Plasma Concentration produced by unit skin-drug contact area ([2]; Single Patch, time point 32 hrs): 0.035 ng/ml/cm^2
- Mean Ketoprofen Plasma Concentration produced by unit skin-drug contact area ([2]; Single Patch, time point 36 hrs): 0.028 ng/ml/cm^2
- Mean Ketoprofen Plasma Concentration produced by unit skin-drug contact area ([2]; Single Patch, time point 42 hrs): 0.023 ng/ml/cm^2
- Mean Ketoprofen Plasma Concentration produced by unit skin-drug contact area ([2]; Single Patch, time point 48 hrs): 0.019 ng/ml/cm^2
- Mean Ketoprofen Plasma Concentration ([2]; Two Patches Dose-Normalized to one patch, time point 2 hrs): 3.9 ng/mL
- Mean Ketoprofen Plasma Concentration ([2]; Two Patches Dose-Normalized to one patch, time point 4 hrs): 44.6 ng/mL
- Mean Ketoprofen Plasma Concentration ([2]; Two Patches Dose-Normalized to one patch, time point 48 hrs): 3.1 ng/mL
- Mean Ketoprofen Plasma Concentration produced by unit skin-drug contact area ([2]; Two Patches, time point 2 hrs): 0.023 ng/ml/cm^2
- Mean Ketoprofen Plasma Concentration produced by unit skin-drug contact area ([2]; Two Patches, time point 4 hrs): 0.259 ng/ml/cm^2
- Mean Ketoprofen Plasma Concentration produced by unit skin-drug contact area ([2]; Two Patches, time point 6 hrs): 0.512 ng/ml/cm^2
- Mean Ketoprofen Plasma Concentration produced by unit skin-drug contact area ([2]; Two Patches, time point 8 hrs): 0.630 ng/ml/cm^2
- Mean Ketoprofen Plasma Concentration produced by unit skin-drug contact area ([2]; Two Patches, time point 10 hrs): 0.714 ng/ml/cm^2
- Mean Ketoprofen Plasma Concentration produced by unit skin-drug contact area ([2]; Two Patches, time point 12 hrs): 0.665 ng/ml/cm^2
- Mean Ketoprofen Plasma Concentration produced by unit skin-drug contact area ([2]; Two Patches, time point 14 hrs): 0.454 ng/ml/cm^2
- Mean Ketoprofen Plasma Concentration produced by unit skin-drug contact area ([2]; Two Patches, time point 16 hrs): 0.280 ng/ml/cm^2
- Mean Ketoprofen Plasma Concentration produced by unit skin-drug contact area ([2]; Two Patches, time point 18 hrs): 0.199 ng/ml/cm^2
- Mean Ketoprofen Plasma Concentration produced by unit skin-drug contact area ([2]; Two Patches, time point 20 hrs): 0.152 ng/ml/cm^2
- Mean Ketoprofen Plasma Concentration produced by unit skin-drug contact area ([2]; Two Patches, time point 24 hrs): 0.090 ng/ml/cm^2
- Mean Ketoprofen Plasma Concentration produced by unit skin-drug contact area ([2]; Two Patches, time point 28 hrs): 0.054 ng/ml/cm^2
- Mean Ketoprofen Plasma Concentration produced by unit skin-drug contact area ([2]; Two Patches, time point 32 hrs): 0.036 ng/ml/cm^2
- Mean Ketoprofen Plasma Concentration produced by unit skin-drug contact area ([2]; Two Patches, time point 36 hrs): 0.029 ng/ml/cm^2
- Mean Ketoprofen Plasma Concentration produced by unit skin-drug contact area ([2]; Two Patches, time point 42 hrs): 0.021 ng/ml/cm^2
- Mean Ketoprofen Plasma Concentration produced by unit skin-drug contact area ([2]; Two Patches, time point 48 hrs): 0.018 ng/ml/cm^2
- concentration at 2 h ([2]; 136 mg, Single Patch (136 mg, 172 cm^2, heated) above one knee, time point 2 hrs): 13.5 ng/mL
- concentration at 4 h ([2]; 136 mg, Single Patch, time point 4 hrs): 62.9 ng/mL
- concentration at 6 h ([2]; 136 mg, Single Patch, time point 6 hrs): 96.7 ng/mL
- concentration at 8 h ([2]; 136 mg, Single Patch, time point 8 hrs): 116 ng/mL
- concentration at 10 h ([2]; 136 mg, Single Patch, time point 10 hrs): 132 ng/mL
- concentration at 12 h ([2]; 136 mg, Single Patch, time point 12 hrs): 121 ng/mL
- concentration at 14 h ([2]; 136 mg, Single Patch, time point 14 hrs): 79.8 ng/mL
- concentration at 16 h ([2]; 136 mg, Single Patch, time point 16 hrs): 48.5 ng/mL
- concentration at 18 h ([2]; 136 mg, Single Patch, time point 18 hrs): 36.3 ng/mL
- concentration at 20 h ([2]; 136 mg, Single Patch, time point 20 hrs): 27.6 ng/mL
- concentration at 24 h ([2]; 136 mg, Single Patch, time point 24 hrs): 16.4 ng/mL
- concentration at 28 h ([2]; 136 mg, Single Patch, time point 28 hrs): 10 ng/mL
- concentration at 32 h ([2]; 136 mg, Single Patch, time point 32 hrs): 6.1 ng/mL
- concentration at 36 h ([2]; 136 mg, Single Patch, time point 36 hrs): 4.9 ng/mL
- concentration at 42 h ([2]; 136 mg, Single Patch, time point 42 hrs): 3.9 ng/mL
- concentration at 48 h ([2]; 136 mg, Single Patch, time point 48 hrs): 3.2 ng/mL
- concentration at 6 h ([2]; 272 mg, Two Patches Dose-Normalized to one patch, time point 6 hrs): 88.1 ng/mL
- concentration at 8 h ([2]; 272 mg, Two Patches Dose-Normalized to one patch, time point 8 hrs): 108 ng/mL
- concentration at 10 h ([2]; 272 mg, Two Patches Dose-Normalized to one patch, time point 10 hrs): 123 ng/mL
- concentration at 12 h ([2]; 272 mg, Two Patches Dose-Normalized to one patch, time point 12 hrs): 114 ng/mL
- concentration at 14 h ([2]; 272 mg, Two Patches Dose-Normalized to one patch, time point 14 hrs): 78.1 ng/mL
- concentration at 16 h ([2]; 272 mg, Two Patches Dose-Normalized to one patch, time point 16 hrs): 48.2 ng/mL
- concentration at 18 h ([2]; 272 mg, Two Patches Dose-Normalized to one patch, time point 18 hrs): 34.2 ng/mL
- concentration at 20 h ([2]; 272 mg, Two Patches Dose-Normalized to one patch, time point 20 hrs): 26.1 ng/mL
- concentration at 24 h ([2]; 272 mg, Two Patches Dose-Normalized to one patch, time point 24 hrs): 15.5 ng/mL
- concentration at 32 h ([2]; 272 mg, Two Patches Dose-Normalized to one patch, time point 32 hrs): 6.2 ng/mL
- concentration at 36 h ([2]; 272 mg, Two Patches Dose-Normalized to one patch, time point 36 hrs): 5 ng/mL
- concentration at 42 h ([2]; 272 mg, Two Patches Dose-Normalized to one patch, time point 42 hrs): 3.6 ng/mL
- concentration at 2 h ([2]; 272 mg, Two Patches simultaneously, one above each knee, time point 2 hrs): 7.8 ng/mL
- concentration at 4 h ([2]; 272 mg, Two Patches, time point 4 hrs): 89.2 ng/mL
- concentration at 6 h ([2]; 272 mg, Two Patches, time point 6 hrs): 176 ng/mL
- concentration at 8 h ([2]; 272 mg, Two Patches, time point 8 hrs): 217 ng/mL
- concentration at 10 h ([2]; 272 mg, Two Patches, time point 10 hrs): 246 ng/mL
- concentration at 12 h ([2]; 272 mg, Two Patches, time point 12 hrs): 229 ng/mL
- concentration at 14 h ([2]; 272 mg, Two Patches, time point 14 hrs): 156 ng/mL
- concentration at 16 h ([2]; 272 mg, Two Patches, time point 16 hrs): 96.3 ng/mL
- concentration at 18 h ([2]; 272 mg, Two Patches, time point 18 hrs): 68.4 ng/mL
- concentration at 20 h ([2]; 272 mg, Two Patches, time point 20 hrs): 52.2 ng/mL
- concentration at 24 h ([2]; 272 mg, Two Patches, time point 24 hrs): 31 ng/mL
- concentration at 28 h ([2]; 272 mg, Two Patches, time point 28 hrs): 18.6 ng/mL
- concentration at 32 h ([2]; 272 mg, Two Patches, time point 32 hrs): 12.3 ng/mL
- concentration at 36 h ([2]; 272 mg, Two Patches, time point 36 hrs): 9.9 ng/mL
- concentration at 42 h ([2]; 272 mg, Two Patches, time point 42 hrs): 7.2 ng/mL
- concentration at 48 h ([2]; 272 mg, Two Patches, time point 48 hrs): 6.2 ng/mL
Structure (SMILES): CC(C(=O)O)c1cccc(C(=O)c2ccccc2)c1 (centres unmarked) [Ketoprofen]

Reference: patent US20090005745A1, “Transdermal drug delivery systems for delivering anti-inflammatory drugs” (priority 2007, published 2009)
